Measured values as given in patent publication US10959979B2, “Small molecules against cancer” (Biokine Therapeutics Ltd., priority 2015, dated 2021).
Entries after “also recorded” stand apart in the source; their conditions may differ.

Key:
[1] = molecular target: MCP-1 (Homo sapiens, UniProt P13500); experiment: Migration of THP-1 cells towards MCP-1 (Transwell migration assay); assay type: cell-based; settings: BKT300 at 78% purity
Description: (§1) 600 μl of RPMI medium was added to the lower chambers of Transwell® transmigration plates, supplemented with 2 μg/ml of MIP3a, 100 ng/ml of SDF-1 or 10 ng/ml of MCP-1. The tested small molecule was added to the lower chambers at the indicated concentration, except in control samples. The MIP3a, SDF-1 or MCP-1 was incubated with the small molecule for 30 minutes at room temperature before the initiation of the migration assay. Following 30 minutes of incubation 2×10^5 immune cells were added to the upper chambers of the transmigration plates in a total volume of 100 μl. Cells which migrated within 3 hours to the bottom chamber of the Transwell® plates were counted using a FACScalibur™ flow cytometer.
To evaluate migration towards MCP-1, THP-1 cells were re-suspended in RPMI medium containing 1% fetal calf serum (FCS).

[2] = molecular target: MIP3a (Homo sapiens, UniProt P78556); experiment: Migration of CD4+ T-cells toward MIP3a (Transwell migration assay); assay type: cell-based
Description: as §1
To evaluate migration toward MIP3a, peripheral blood mononuclear cells (PBMCs) were isolated from heparinized venous blood by centrifugation over Ficoll Histopaque® 1077. CD4+ T cells were further isolated with RosetteSep™ human CD4+ T-cell Enrichment cocktail (StemCell Technologies Inc.), according to the manufacturer's instructions. CD4+ T cells were re-suspended in RPMI medium containing 1% fetal calf serum (FCS).

[3] = molecular target: SDF-1 (Homo sapiens, UniProt P48061); experiment: Migration of Jurkat cells towards SDF-1 (Transwell migration assay); assay type: cell-based; settings: for Selectivity of inhibition of SDF-1 function over MCP-1 and/or MIP3a function: at a concentration of about 10 μg/ml
Description: as §1
To evaluate migration towards SDF-1, Jurkat cells were re-suspended in RPMI medium containing 1% fetal calf serum (FCS).

[4] = system: cancer cells; settings: literature reports; cited from earlier work
[5] = system: MV4-11 human acute myeloid leukemia cells; experiment: Cancer cell viability, FACS with propidium iodide staining; assay type: cell-based; settings: 24 hours
Description: In order to assess the effect of compounds of Table 2 on cancer cell viability, the in vitro effect of the compounds on MV4-11 human acute myeloid leukemia cells was evaluated. The cancer cells were incubated in RPMI cell medium with 1% fetal calf serum (FCS) at a concentration of 2×10^5 cells/well at a final volume of 250 μl in 96-well plate. The compounds were added to the cells at the indicated concentrations. The cells were incubated for 24 hours and the number of dead and viable cells was then evaluated by fluorescence-activated cell sorting (FACS), using propidium iodide (PI) staining.

[6] = system: Legionella; settings: cited from earlier work
[7] = system: MCP-1 expression in adipocytes; settings: reported by Kuroyanagi et al.; cited from earlier work

SDF-1, sequence (P48061 22-93): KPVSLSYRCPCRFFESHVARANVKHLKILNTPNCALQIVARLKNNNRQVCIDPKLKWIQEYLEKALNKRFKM
MCP-1, sequence (P13500 24-99): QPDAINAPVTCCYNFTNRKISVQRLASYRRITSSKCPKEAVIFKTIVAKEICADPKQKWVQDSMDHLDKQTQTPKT
MIP3a, sequence (P78556 27-96): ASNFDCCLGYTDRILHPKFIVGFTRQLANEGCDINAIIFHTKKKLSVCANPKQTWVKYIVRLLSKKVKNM

Row | SMILES | Inhibition of migration of monocytic THP-1 cells towards MCP-1 ([1]; 10 μg/ml) | Inhibition of migration of monocytic THP-1 cells towards MCP-1 ([1]; 50 μg/ml) | Inhibition of CD4+ T-cell migration towards MIP3a ([2]; 50 μg/ml, BKT300 at 78% purity) | Inhibition of migration of lymphocytic Jurkat cells towards SDF-1 ([3]; 10 μg/ml, BKT300 at 78% purity) | Inhibition of CD4+ T-cell migration towards MIP3a ([2]; 10 μg/ml) | other results
1 | CC(C)=CCc1c(O[C@@H]2O[C@H](CO)[C@@H](O)[C@H](O)[C@H]2O)cc(O)c2c1O[C@H](c1ccc(O)cc1)CC2=O [BKT201] | no apparent effect | strong inhibition | completely inhibited | significantly inhibited; also recorded: strong inhibition |  | Selectivity of inhibition of SDF-1 function over MCP-1 and/or MIP3a function [3]: relatively selective manner
2 | CC1(C)CC[C@]2(C(=O)O)CC[C@]3(C)C(=CC[C@@H]4[C@@]5(C)C[C@@H](O)[C@H](O)[C@@](C)(CO)[C@@H]5CC[C@]43C)[C@@H]2C1 [BKT216, Arjunolic acid] | partial inhibition | strong inhibition |  |  |  | Inhibition of cancer cells [4]: inhibit cancer cells
3 | C/C(=C/COc1c2occc2cc2ccc(=O)oc12)CO [BKT208, Trichoclin] |  |  |  | significantly inhibited |  | 
4 | Cc1cc(O)c2c(=O)c3c(O)cc(O)c4c5c(O)cc(O)c6c(=O)c7c(O)cc(C)c8c1c2c(c34)c(c78)c65 [BKT203, Hypericin] |  |  |  | significantly inhibited; also recorded: strong inhibition | completely inhibited | 
5 | O=C(O)c1cc(O)c2c(c1)[C@H]([C@H]1c3cc(C(=O)O)cc(O)c3C(=O)c3c(O[C@@H]4O[C@H](CO)[C@@H](O)[C@H](O)[C@H]4O)cccc31)c1cccc(O[C@@H]3O[C@H](CO)[C@@H](O)[C@H](O)[C@H]3O)c1C2=O [BKT210, Sennoside A] |  |  | completely inhibited | significantly inhibited | significantly inhibited | 
6 | CC1CCC2=C(CCCC2(C)C(=O)O)C1(C)CCc1ccoc1 (stereo not drawn) [BKT211] | complete inhibition | strong inhibition |  | significantly inhibited; also recorded: strong inhibition |  | Cell death of MV4-11 cells ([5]; 10 μg/ml): induced cell death
7 | CC(C)=CCc1cc(OC2O[C@H](CO)[C@@H](O)[C@H](O)[C@H]2O)cc(CC=C(C)C)c1C(O)C(=O)O (stereo partly drawn) [BKT213] |  |  | completely inhibited | significantly inhibited; also recorded: strong inhibition |  | Selectivity of inhibition of SDF-1 function over MCP-1 and/or MIP3a function [3]: relatively selective manner
8 | CCCCCC(=O)Cc1cc(O)cc(O)c1Oc1cc(O)cc2cc(CCCCC)oc(=O)c12 [8-(2,4-dihydroxy-6-(2-oxoheptyl)-phenoxy)-6-hydroxy-3-pentyl-1H-isochromen-1-one] |  |  |  |  |  | Antibacterial activity against Legionella [6]: potent antibacterial activity
9 | C=C[C@H](O)C#CC#C[C@@H](O)/C=C\CCCCCCC [BKT212, Falcarindiol] |  |  |  | significantly inhibited; also recorded: strong inhibition | completely inhibited | Inhibition of cancer cells [4]: inhibit cancer cells
10 | CC(C)=CCC/C(C)=C/COc1ccc2ccc(=O)oc2c1 [BKT215, Auraptene] |  |  |  |  |  | Inhibition of cancer cells [4]: inhibit cancer cells; MCP-1 expression in adipocytes [7]: suppress MCP-1 expression; Cell death of MV4-11 cells ([5]; 20 am (equivalent to 6 μg/ml)): induced cell death
11 | Cc1c(O)c(C)c2c(c1O)C(=O)CC(c1ccc(O)c(O)c1)O2 (stereo not drawn) [BKT204, Cyrtominetin] | partial inhibition | strong inhibition |  | significantly inhibited |  | 
12 | CCC/C=C\C/C=C\CCCCCCCc1cccc(O)c1C(=O)O [BKT206] | partial inhibition | strong inhibition |  | significantly inhibited; also recorded: strong inhibition | completely inhibited | Cell death of MV4-11 cells ([5]; 10 μg/ml): induced cell death
13 | CCCCCc1cc2cc(O)cc(Oc3c(O)cc(O)c(C(=O)O)c3CCCCC)c2c(=O)o1 [BKT400] |  |  |  |  |  | Inhibition of migration of lymphocytic Jurkat cells towards SDF-1 ([3]; 1 and 10 μg/ml tested (FIG. 15)): inhibit the migration
14 | CCCCCCCCC(=O)/C=C/C=C/C(=O)CCCC(=O)O [BKT209] | no apparent effect | strong inhibition | completely inhibited | significantly inhibited; also recorded: strong inhibition |  | Selectivity of inhibition of SDF-1 function over MCP-1 and/or MIP3a function [3]: relatively selective manner
15 | COC(=O)c1c(O)cc2c(c1C)C(=O)c1c(O)cccc1C2=O [BKT207, Aloesaponarin I] |  |  |  | significantly inhibited; also recorded: strong inhibition | completely inhibited | 
16 | C=C1CCC2C(C)(C)C(O)CCC2(C)C1COc1ccc2ccc(=O)oc2c1 (stereo not drawn) [BKT202] |  |  | completely inhibited |  | significantly inhibited | 
17 | CCCCCC=CC=CC(=O)CCCCCCCC(=O)O [BKT205] | no apparent effect | strong inhibition | completely inhibited | significantly inhibited; also recorded: strong inhibition |  | Selectivity of inhibition of SDF-1 function over MCP-1 and/or MIP3a function [3]: relatively selective manner
